According to US20230111310A1, “CARBOXYLIC ACID DERIVATIVE-SUBSTITUTED IMINO ARYL COMPOUND, PREPARATION METHOD THEREFOR, HERBICIDAL COMPOSITION AND USE THEREOF” (Qingdao Kingagroot Chemical Compound Co., Ltd., priority 2020, published 2023):

Assays:
Assay in all cases: Weeding effect in post-emergence stage
Format in all cases: in vivo
Echinochloa crusgalli = settings: for Weeding effect in post-emergence stage, Echinochloa crusgalli: level of fresh weight growth control rate; for Weeding effect in post-emergence stage, Echinochloa crusgalli (level): fresh weight control rate level
Summary of the method: (§1)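 Seeds are sown in soil-filled pots under 0.5-2 cm soil and grown 2 weeks in greenhouse. Plants at 2-3 leaves are sprayed with compound (acetone, Tween 80, 1.5 liter/ha methyl oleate EC, water) at 7.5 to 500 g/ha. Damage is rated 3 weeks later, averaging three repeats.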

Digitaria sanguinalis = settings: for Weeding effect in post-emergence stage, Digitaria sanguinalis: level of fresh weight growth control rate; for Weeding effect in post-emergence stage, Digitaria sanguinalis (level): fresh weight control rate level
Summary of the method: as §1

Alopecurus japonicus = settings: for Weeding effect in post-emergence stage, Alopecurus japonicus: level of fresh weight growth control rate; for Weeding effect in post-emergence stage, Alopecurus japonicus (level): fresh weight control rate level
Summary of the method: as §1

Eleusine indica = settings: for Weeding effect in post-emergence stage, Eleusine indica: level of fresh weight growth control rate; for Weeding effect in post-emergence stage, Eleusine indica (level): fresh weight control rate level
Summary of the method: as §1

Setaria viridis = settings: for Weeding effect in post-emergence stage, Setaria viridis: level of fresh weight growth control rate; for Weeding effect in post-emergence stage, Setaria viridis (level): fresh weight control rate level
Summary of the method: as §1

Abutilon theophrasti = settings: for Weeding effect in post-emergence stage, Abutilon theophrasti: level of fresh weight growth control rate; for Weeding effect in post-emergence stage, Abutilon theophrasti (level): fresh weight control rate level
Summary of the method: as §1

SMILES | Weeding effect in post-emergence stage, Echinochloa crusgalli (level) (Echinochloa crusgalli; Dose 60 g/ha) | Weeding effect in post-emergence stage, Digitaria sanguinalis (level) (Digitaria sanguinalis; Dose 60 g/ha) | Weeding effect in post-emergence stage, Alopecurus japonicus (level) (Alopecurus japonicus; Dose 60 g/ha) | Weeding effect in post-emergence stage, Eleusine indica (level) (Eleusine indica; Dose 60 g/ha) | Weeding effect in post-emergence stage, Setaria viridis (level) (Setaria viridis; Dose 60 g/ha) | Weeding effect in post-emergence stage, Abutilon theophrasti (level) (Abutilon theophrasti; Dose 60 g/ha) | other results
COC(=O)[C@H](O/N=C/c1cc(-n2c(=O)cc(C(F)(F)F)n(C)c2=O)c(F)cc1Cl)c1ccccc1 [337(R)] |  |  |  |  |  |  | Weeding effect in post-emergence stage, Echinochloa crusgalli (Echinochloa crusgalli; Dose 15 g/ha): 5 (Level 5: growth control rate is above 85%); Weeding effect in post-emergence stage, Digitaria sanguinalis (Digitaria sanguinalis; Dose 15 g/ha): 5 (Level 5: growth control rate is above 85%); Weeding effect in post-emergence stage, Alopecurus japonicus (Alopecurus japonicus; Dose 15 g/ha): 5 (Level 5: growth control rate is above 85%); Weeding effect in post-emergence stage, Eleusine indica (Eleusine indica; Dose 15 g/ha): 5 (Level 5: growth control rate is above 85%); Weeding effect in post-emergence stage, Setaria viridis (Setaria viridis; Dose 15 g/ha): 5 (Level 5: growth control rate is above 85%); Weeding effect in post-emergence stage, Abutilon theophrasti (Abutilon theophrasti; Dose 15 g/ha): 5 (Level 5: growth control rate is above 85%)
COC(=O)[C@@H](C)O/N=C/c1cc(-n2c(=O)cc(C(F)(F)F)n(C)c2=O)c(F)cc1C(F)(F)F [342(R)] |  |  |  |  |  |  | Weeding effect in post-emergence stage, Echinochloa crusgalli (Echinochloa crusgalli; Dose 15 g/ha): 5 (Level 5: growth control rate is above 85%); Weeding effect in post-emergence stage, Digitaria sanguinalis (Digitaria sanguinalis; Dose 15 g/ha): 5 (Level 5: growth control rate is above 85%); Weeding effect in post-emergence stage, Alopecurus japonicus (Alopecurus japonicus; Dose 15 g/ha): 5 (Level 5: growth control rate is above 85%); Weeding effect in post-emergence stage, Eleusine indica (Eleusine indica; Dose 15 g/ha): 5 (Level 5: growth control rate is above 85%); Weeding effect in post-emergence stage, Setaria viridis (Setaria viridis; Dose 15 g/ha): 5 (Level 5: growth control rate is above 85%); Weeding effect in post-emergence stage, Abutilon theophrasti (Abutilon theophrasti; Dose 15 g/ha): 5 (Level 5: growth control rate is above 85%)
COC(=O)[C@@H](C)O/N=C/c1cc(-n2c(=O)cc(C(F)(F)F)n(C)c2=O)c(F)cc1C#N [344(R)] |  |  |  |  |  |  | Weeding effect in post-emergence stage, Echinochloa crusgalli (Echinochloa crusgalli; Dose 15 g/ha): 5 (Level 5: growth control rate is above 85%); Weeding effect in post-emergence stage, Digitaria sanguinalis (Digitaria sanguinalis; Dose 15 g/ha): 5 (Level 5: growth control rate is above 85%); Weeding effect in post-emergence stage, Alopecurus japonicus (Alopecurus japonicus; Dose 15 g/ha): 5 (Level 5: growth control rate is above 85%); Weeding effect in post-emergence stage, Eleusine indica (Eleusine indica; Dose 15 g/ha): 5 (Level 5: growth control rate is above 85%); Weeding effect in post-emergence stage, Setaria viridis (Setaria viridis; Dose 15 g/ha): 5 (Level 5: growth control rate is above 85%); Weeding effect in post-emergence stage, Abutilon theophrasti (Abutilon theophrasti; Dose 15 g/ha): 5 (Level 5: growth control rate is above 85%)
COC(=O)[C@@H](C)O/N=C/c1cc(-n2c(=O)cc(C(F)(F)F)n(C)c2=S)c(F)cc1Cl [347(R)] |  |  |  |  |  |  | Weeding effect in post-emergence stage, Echinochloa crusgalli (Echinochloa crusgalli; Dose 30 g/ha): 5 (Level 5: growth control rate is above 85%); Weeding effect in post-emergence stage, Digitaria sanguinalis (Digitaria sanguinalis; Dose 30 g/ha): 5 (Level 5: growth control rate is above 85%); Weeding effect in post-emergence stage, Alopecurus japonicus (Alopecurus japonicus; Dose 30 g/ha): 5 (Level 5: growth control rate is above 85%); Weeding effect in post-emergence stage, Eleusine indica (Eleusine indica; Dose 30 g/ha): 5 (Level 5: growth control rate is above 85%); Weeding effect in post-emergence stage, Setaria viridis (Setaria viridis; Dose 30 g/ha): 5 (Level 5: growth control rate is above 85%); Weeding effect in post-emergence stage, Abutilon theophrasti (Abutilon theophrasti; Dose 30 g/ha): 5 (Level 5: growth control rate is above 85%)
COC(=O)[C@@H](C)O/N=C/c1cc(-n2c(=S)cc(C(F)(F)F)n(C)c2=S)c(F)cc1Cl [351(R)] | 5 (Level 5: growth control rate is above 85%) | 5 (Level 5: growth control rate is above 85%) | 5 (Level 5: growth control rate is above 85%) | 5 (Level 5: growth control rate is above 85%) | 5 (Level 5: growth control rate is above 85%) | 5 (Level 5: growth control rate is above 85%) | 
COC(=O)[C@@H](C)O/N=C/c1cc(-n2c(=S)cc(C(F)(F)F)n(C)c2=O)c(F)cc1Br [388(R)] |  |  |  |  |  |  | Weeding effect in post-emergence stage, Echinochloa crusgalli (level) (Echinochloa crusgalli; Dose 15 g/ha): 5 (Level 5: growth control rate is above 85%); Weeding effect in post-emergence stage, Digitaria sanguinalis (level) (Digitaria sanguinalis; Dose 15 g/ha): 5 (Level 5: growth control rate is above 85%); Weeding effect in post-emergence stage, Alopecurus japonicus (level) (Alopecurus japonicus; Dose 15 g/ha): 5 (Level 5: growth control rate is above 85%); Weeding effect in post-emergence stage, Eleusine indica (level) (Eleusine indica; Dose 15 g/ha): 5 (Level 5: growth control rate is above 85%); Weeding effect in post-emergence stage, Setaria viridis (level) (Setaria viridis; Dose 15 g/ha): 5 (Level 5: growth control rate is above 85%); Weeding effect in post-emergence stage, Abutilon theophrasti (level) (Abutilon theophrasti; Dose 15 g/ha): 5 (Level 5: growth control rate is above 85%)
COC(=O)[C@@H](C)O/N=C/c1cc(-n2c(=S)cc(C(F)(F)F)n(C)c2=S)c(F)cc1C#N [390(R)] |  |  |  |  |  |  | Weeding effect in post-emergence stage, Echinochloa crusgalli (level) (Echinochloa crusgalli; Dose 15 g/ha): 5 (Level 5: growth control rate is above 85%); Weeding effect in post-emergence stage, Digitaria sanguinalis (level) (Digitaria sanguinalis; Dose 15 g/ha): 5 (Level 5: growth control rate is above 85%); Weeding effect in post-emergence stage, Alopecurus japonicus (level) (Alopecurus japonicus; Dose 15 g/ha): 5 (Level 5: growth control rate is above 85%); Weeding effect in post-emergence stage, Eleusine indica (level) (Eleusine indica; Dose 15 g/ha): 5 (Level 5: growth control rate is above 85%); Weeding effect in post-emergence stage, Setaria viridis (level) (Setaria viridis; Dose 15 g/ha): 5 (Level 5: growth control rate is above 85%); Weeding effect in post-emergence stage, Abutilon theophrasti (level) (Abutilon theophrasti; Dose 15 g/ha): 5 (Level 5: growth control rate is above 85%)
COC(=O)[C@@H](C)O/N=C/c1cc(-n2c(=S)cc(C(F)(F)F)n(C)c2=S)c(F)cc1Br [391(R)] | 5 (Level 5: growth control rate is above 85%) | 5 (Level 5: growth control rate is above 85%) | 5 (Level 5: growth control rate is above 85%) | 5 (Level 5: growth control rate is above 85%) | 5 (Level 5: growth control rate is above 85%) | 5 (Level 5: growth control rate is above 85%) | 
COC(=O)[C@@H](C)O/N=C/c1cc(-n2c(=S)cc(C(F)(F)F)n(C)c2=S)c(F)cc1C(F)(F)F [392(R)] | 5 (Level 5: growth control rate is above 85%) | 5 (Level 5: growth control rate is above 85%) | 5 (Level 5: growth control rate is above 85%) | 5 (Level 5: growth control rate is above 85%) | 5 (Level 5: growth control rate is above 85%) | 5 (Level 5: growth control rate is above 85%) | 
COC(=O)[C@@H](C)O/N=C/c1cc(-n2c(=S)cc(C(F)(F)F)n(C)c2=S)c(F)cc1C#N [393(R)] | 5 (Level 5: growth control rate is above 85%) | 5 (Level 5: growth control rate is above 85%) | 5 (Level 5: growth control rate is above 85%) | 5 (Level 5: growth control rate is above 85%) | 5 (Level 5: growth control rate is above 85%) | 5 (Level 5: growth control rate is above 85%) | 
COC(=O)[C@@H](C)O/N=C/c1cc(-n2c(=O)cc(C(F)(F)F)n(C)c2=S)c(F)cc1Br [394(R)] | 5 (Level 5: growth control rate is above 85%) | 5 (Level 5: growth control rate is above 85%) | 5 (Level 5: growth control rate is above 85%) | 5 (Level 5: growth control rate is above 85%) | 5 (Level 5: growth control rate is above 85%) | 5 (Level 5: growth control rate is above 85%) | 
COC(=O)[C@@H](C)O/N=C/c1cc(-n2c(=O)cc(C(F)(F)F)n(C)c2=S)c(F)cc1C(F)(F)F [395(R)] | 5 (Level 5: growth control rate is above 85%) | 5 (Level 5: growth control rate is above 85%) | 5 (Level 5: growth control rate is above 85%) | 5 (Level 5: growth control rate is above 85%) | 5 (Level 5: growth control rate is above 85%) | 5 (Level 5: growth control rate is above 85%) | 
COC(=O)[C@@H](C)O/N=C/c1cc(-n2c(=O)cc(C(F)(F)F)n(C)c2=S)c(F)cc1C#N [396(R)] | 5 (Level 5: growth control rate is above 85%) | 5 (Level 5: growth control rate is above 85%) | 5 (Level 5: growth control rate is above 85%) | 5 (Level 5: growth control rate is above 85%) | 5 (Level 5: growth control rate is above 85%) | 5 (Level 5: growth control rate is above 85%) | 
